Reference: patent US20210386762A1, “THE APPLICATION OF URSODEOXYCHOLIC ACID OR ITS PHARMACEUTICAL SALT IN THE PREPARATION OF AN ANTITUMOR DRUG AND AN ANTITUMOR DRUG” (ZHEJIANG UNIVERSITY, priority 2018, published 2021)

Key:
[1] = tested on: lung cancer cell line LLC; test: Combination with anti-PD-1 antibody, lung cancer model in humanized PD-1 transgenic mice; format: in vivo, mouse; conditions: LLC subcutaneous, SHR-1210 10 mg/kg every two days, URSO 30 mg/kg every other day, vs water and humanized IgG4 (FIG. 6)
Description: (§1) Female C57BL/6 (6-8 weeks old) mice were purchased from Shanghai SLAC Laboratory Animal Co., Ltd.; humanized PD-1 transgenic mice were purchased from Nanjing Biomedical Research Institute of Nanjing University; and all mice were raised in SPF facilities. Mouse colon cancer cell line MC38, lung cancer cell line LLC-luci and melanoma cell line B16 were all purchased from American Type Culture Collection (ATCC).
(§2) To verify whether the combined use of ursodeoxycholic acid and anti-PD-1 antibody can improve antitumor effect, colon cancer cell line MC38, melanoma cell line B16 and lung cancer cell line LLC are inoculated subcutaneously into humanized PD-1 transgenic mice, which were randomly divided into four groups when tumor volume reaches 100 mm^3. Treatment groups were treated with SHR-1210, URSO or SHR-1210 in combination with URSO, while the control groups were injected with water and humanized IgG4 (an isotype control for SHRR-1210). SHR-1210 was used every two days at a dosage of 10 mg/kg, while URSO was used every other day at 30 mg/kg, with the volume of tumor recorded each time.

[2] = tested on: colon cancer cell line MC38; test: Combination with anti-PD-1 antibody, colon cancer model in humanized PD-1 transgenic mice; format: in vivo, mouse; conditions: MC38 subcutaneous, SHR-1210 10 mg/kg every two days, URSO 30 mg/kg every other day, vs water and humanized IgG4 (FIG. 5)
Description: as §1, §2

[3] = tested on: colon cancer cell line MC38; test: Colon cancer tumor-bearing mouse model (C57BL/6); format: in vivo
Description: (§3) Female C57BL/6 (6-8 weeks old) mice were purchased from Shanghai SLAC Laboratory Animal Co., Ltd.; humanized PD-1 transgenic mice were purchased from Nanjing Biomedical Research Institute of Nanjing University; and all mice were raised in SPF facilities. Mouse colon cancer cell line MC38, lung cancer cell line LLC-luci and melanoma cell line B16 were all purchased from American Type Culture Collection (ATCC). Since Treg cells can inhibit extensive antitumor immune response while promoting angiogenesis in the tumor microenvironment, to explore the in vivo influence of ursodeoxycholic acid on Treg cells, tumor-bearing models are established using mouse colon cancer cell line MC38, lung cancer cell line LLC-luci and melanoma cell line B16, with female SPF-grade C57BL/6 as the experiment subject. For better internal absorption of ursodeoxycholic acid, the above-mentioned ursodeoxycholic acid is replaced with sodium ursodeoxycholate (SANTA CRUZ BIOTECHNOLOGY, #2898-95-5). The control group and the experimental group both received injection of ddH2O and URSO (30 mg/kg) every day, with tumor size observed and recorded. […] Two weeks later, separate the tumor-infiltrating lymphocytes for analysis by flow cytometry. […]

[4] = tested on: lung cancer cell line LLC-luci; test: Lung cancer tumor-bearing mouse model (C57BL/6); format: in vivo
Description: as §3

[5] = tested on: melanoma cell line B16; test: Melanoma tumor-bearing mouse model (C57BL/6); format: in vivo
Description: as §3

[6] = tested on: melanoma cell line B16; test: Combination with anti-PD-1 antibody, melanoma model in humanized PD-1 transgenic mice; format: in vivo, mouse; conditions: B16 subcutaneous, SHR-1210 10 mg/kg every two days, URSO 30 mg/kg every other day, vs water and humanized IgG4 (FIG. 7)
Description: as §1, §2

[7] = tested on: Treg cell differentiation (human naïve CD4+ T cells); test: In vitro Treg cell differentiation of human naïve CD4+ T cells, flow cytometry; format: cell-based; conditions: human naïve CD4+ T cells from healthy volunteers, CD3/CD28 activation, flow cytometry on day 4 (FIG. 8)
Description: To investigate the influence of ursodeoxycholic acid on humanized Treg cell differentiation, whole blood of volunteers were collected (ethics approval: approved by Medical Ethics Committee of Zhejiang University School of Medicine, Shen Lun No. 2019-013; five healthy volunteers, 10 ml peripheral venous blood each, collected by Zhejiang Medial & Health Group Hangzhou Hospital). naïve CD4+ T cells were sorted. Detailed procedures are as follows: 1. Separation of peripheral blood mononuclear cells: • (1) Fresh anticoagulant whole blood (EDTA, sodium citrate or heparin) was taken. Whole blood was diluted with isotonic solution (PBS or normal saline) of equal volume. • (2) A certain volume of separating medium (VESTA, #7111011) was added into a centrifuge tube, diluted blood sample was spread evenly on the surface of separating medium, and maintained a clear interface between two liquid surfaces. […] Sorting of human naïve CD4+ T cells: • (1) With Human naïve CD4+ T Cell Kit (STEMCELL, #19155) and the standard kit method adopted, naïve CD4+ T cells were sorted from human peripheral blood mononuclear cells, and plating was conducted according to the method in Example 1. • (2) Human T-Activator CD3/CD28 was added for T Cell Expansion and Activation (Gibco, #11161D). • (3) On day 4, Treg cell differentiation was detected by flow cytometry.

[8] = tested on: Treg cell differentiation (mouse naïve CD4+ T cells); test: In vitro Treg cell differentiation of mouse naïve CD4+ T cells, flow cytometry; format: cell-based; conditions: 50 μM vs DMSO, anti-CD3/anti-CD28, flow cytometry on day 4 (FIG. 1)
Description: Treg cell surface can express CD4 and CD25 molecules. In addition, it is characterized by its high expression of transcription factor Foxp3. Based on the characteristic above, flow cytometry is adopted to explore the in vitro influence of ursodeoxycholic acid on Treg cell differentiation. Detailed procedures are as follows: T cell sorting: Mouse T cells were sorted by immunomagnetic beads methods. The mice were killed by cervical dislocation, spleens and lymph nodes were taken under aseptic conditions, ground and put through a sieve, centrifuged at 400 g for 5 min, and cells were resuspended with sort buffer. The total cells were counted with 3% glacial acetic acid, and proceeded strictly following the instructions of the sorting kit. CD4 negative selection kit (EasySep™ Mouse CD4+ T Cell Isolation Kit, #19852A) and Biotin sorting kit (EasySep™ Mouse Biotin Positive Selection Kit, #18556) were used in combination for sorting naïve CD4+ T cells (CD4-positive naïve T cells). […] After sorting, when the CD4+CD62L+ purity detected by flow cytometry is greater than 95%, cells were used for further experiments. […] DMSO or ursodeoxycholic acid U5127 (SIGMA-ALDRICH, #128-13-2) was added with a concentration of 50 μM respectively, and the differentiation of Treg cells were detected by flow cytometry on day 4. […]

| Molecule | tumor growth (tumor volume) [1] | tumor growth (tumor volume) [2] | tumor volume ([3]; C57BL/6 mice, 30 mg/kg injection every day, vs ddH2O control (FIG. 4A)) | tumor volume ([4]; C57BL/6 mice, 30 mg/kg injection every day, vs ddH2O control (FIG. 3A)) | tumor volume ([5]; C57BL/6 mice, 30 mg/kg injection every day, vs ddH2O control (FIG. 2A)) | tumor growth (tumor volume) [6] | differentiation of humanized endogenous Treg cells [7] | proportion of endogenous Treg cells [8] | proportion of Treg cells in tumor infiltrating lymphocytes ([3]; two weeks of treatment, flow cytometry (FIG. 4B)) | proportion of Treg cells in tumor infiltrating lymphocytes ([4]; two weeks of treatment, flow cytometry (FIG. 3B)) | proportion of Treg cells in tumor infiltrating lymphocytes ([5]; two weeks of treatment, flow cytometry (FIG. 2B)) |
| --- | --- | --- | --- | --- | --- | --- | --- | --- | --- | --- | --- |
| C[C@H](CCC(=O)[O-])[C@H]1CC[C@H]2[C@@H]3[C@@H](O)C[C@@H]4C[C@H](O)CC[C@]4(C)[C@H]3CC[C@]12C.[Na+] [URSO, sodium ursodeoxycholate] | significantly inhibited tumor growth | significantly inhibited tumor growth | obviously smaller in volume | obviously smaller in volume | obviously smaller in volume | significantly inhibited tumor growth |  |  |  |  |  |
| C[C@H](CCC(=O)O)[C@H]1CC[C@H]2[C@@H]3[C@@H](O)C[C@@H]4C[C@H](O)CC[C@]4(C)[C@H]3CC[C@]12C [ursodeoxycholic acid] |  |  |  |  |  |  | reduced | significantly reduced | reduced | reduced | reduced |
| SHR-1210: humanized anti-PD-1 antibody produced by Hengrui Medicine (antibody, chains of the INN, looked up, V domains shown) VH: EVQLVESGGGLVQPGGSLRLSCAASGFTFSSYMMSWVRQAPGKGLEWVATISGGGANTYYPDSVKGRFTISRDNAKNSLYLQMNSLRAEDTAVYYCARQLYYFDYWGQGTTVTVSS VL: DIQMTQSPSSLSASVGDRVTITCLASQTIGTWLTWYQQKPGKAPKLLIYTATSLADGVPSRFSGSGSGTDFTLTISSLQPEDFATYYCQQVYSIPWTFGGGTKVEIK | significantly inhibited tumor growth | significantly inhibited tumor growth |  |  |  | significantly inhibited tumor growth |  |  |  |  |  |
